Like-named read-outs stand apart in the source and are kept apart here.
Tests used:
[1] = Study 4
Procedure: (§1) Samples were tumbled for 48 hours at ambient conditions and protected from light.
A full factorial DOE study was performed to determine the optimal amounts of NMP, benzyl alcohol and buffer (tromethamine) required to produce the highest solubility. Any potential synergistic effects stemming from various excipient combinations were also investigated.

[2] = for Apparent pH: 2% Benzyl Alcohol
Procedure: as §1

[3] = not given; remark: listed apart in the source
[4] = 200 mM Sodium Phosphate, target pH 6.0, t24 h
[5] = 200 mM Tromethamine/HCl, target pH 8.5, t2 h

NS(=O)(=O)c1cc(C(=O)O)c(NCc2ccco2)cc1Cl [furosemide, 4-chloro-2-(furan-2-ylmethylamino)-5-sulfamoyl-benzoic acid]
Osmolarity (200 mM Citrate, target pH 6.0, t2 h): 516 mOsm/kg
Osmolarity (200 mM Citrate, target pH 6.0, t24 h): 533 mOsm/kg
Osmolarity (200 mM Citrate, target pH 6.0, t48 h): 557 mOsm/kg
Osmolarity (200 mM Citrate, target pH 7.4, t2 h): 488 mOsm/kg
Osmolarity (200 mM Citrate, target pH 7.4, t24 h): 484 mOsm/kg
Osmolarity (200 mM Citrate, target pH 7.4, t48 h): 549 mOsm/kg
Osmolarity (200 mM Histidine/HCl, target pH 6.0, t2 h): 441 mOsm/kg
Osmolarity (200 mM Histidine/HCl, target pH 6.0, t24 h): 392 mOsm/kg
Osmolarity (200 mM Histidine/HCl, target pH 6.0, t48 h): 477 mOsm/kg
Osmolarity (200 mM Histidine/HCl, target pH 7.4, t2 h): 588 mOsm/kg
Osmolarity (200 mM Histidine/HCl, target pH 7.4, t24 h): 584 mOsm/kg
Osmolarity (200 mM Histidine/HCl, target pH 7.4, t48 h): 616 mOsm/kg
Osmolarity (200 mM Histidine/HCl, target pH 8.5, t2 h): 553 mOsm/kg
Osmolarity (200 mM Histidine/HCl, target pH 8.5, t24 h): 558 mOsm/kg
Osmolarity (200 mM Histidine/HCl, target pH 8.5, t48 h): 678 mOsm/kg
Osmolarity (200 mM Potassium Phosphate, target pH 6.0, t2 h): 384 mOsm/kg
Osmolarity (200 mM Potassium Phosphate, target pH 6.0, t24 h): 383 mOsm/kg
Osmolarity (200 mM Potassium Phosphate, target pH 6.0, t48 h): 376 mOsm/kg
Osmolarity (200 mM Potassium Phosphate, target pH 7.4, t2 h): 462 mOsm/kg
Osmolarity (200 mM Potassium Phosphate, target pH 7.4, t24 h): 471 mOsm/kg
Osmolarity (200 mM Potassium Phosphate, target pH 7.4, t48 h): 481 mOsm/kg
Osmolarity (200 mM Potassium Phosphate, target pH 8.5, t2 h): 487 mOsm/kg
Osmolarity (200 mM Potassium Phosphate, target pH 8.5, t24 h): 497 mOsm/kg
Osmolarity (200 mM Potassium Phosphate, target pH 8.5, t48 h): 423 mOsm/kg
Osmolarity (200 mM Sodium Phosphate, target pH 6.0, t2 h): 388 mOsm/kg
Apparent pH [4]: 5.1
Osmolarity [4]: 399 mOsm/kg
Osmolarity (200 mM Sodium Phosphate, target pH 6.0, t48 h): 393 mOsm/kg
Osmolarity (200 mM Sodium Phosphate, target pH 7.4, t2 h): 330 mOsm/kg
Osmolarity (200 mM Sodium Phosphate, target pH 7.4, t24 h): 310 mOsm/kg
Osmolarity (200 mM Sodium Phosphate, target pH 7.4, t48 h): 310 mOsm/kg
Osmolarity (200 mM Sodium Phosphate, target pH 8.5, t2 h): 282 mOsm/kg
Osmolarity (200 mM Sodium Phosphate, target pH 8.5, t24 h): 267 mOsm/kg
Osmolarity (200 mM Sodium Phosphate, target pH 8.5, t48 h): 285 mOsm/kg
Osmolarity (200 mM Tromethamine, target pH 6.0, t2 h): 403 mOsm/kg
Osmolarity (200 mM Tromethamine, target pH 6.0, t24 h): 406 mOsm/kg
Osmolarity (200 mM Tromethamine, target pH 6.0, t48 h): 446 mOsm/kg
Osmolarity (200 mM Tromethamine, target pH 7.4, t2 h): 434 mOsm/kg
Osmolarity (200 mM Tromethamine, target pH 7.4, t24 h): 481 mOsm/kg
Osmolarity (200 mM Tromethamine, target pH 7.4, t48 h): 482 mOsm/kg
Osmolarity (200 mM Tromethamine, target pH 8.5, t2 h): 403 mOsm/kg
Osmolarity (200 mM Tromethamine, target pH 8.5, t24 h): 347 mOsm/kg
Osmolarity (200 mM Tromethamine, target pH 8.5, t48 h): 433 mOsm/kg
Osmolarity (200 mM Tromethamine/HCl, target pH 6.0, t2 h): 121 mOsm/kg
Osmolarity (200 mM Tromethamine/HCl, target pH 6.0, t24 h): 114 mOsm/kg
Osmolarity (200 mM Tromethamine/HCl, target pH 6.0, t48 h): 127 mOsm/kg
Osmolarity (200 mM Tromethamine/HCl, target pH 7.4, t2 h): 232 mOsm/kg
Osmolarity (200 mM Tromethamine/HCl, target pH 7.4, t24 h): 215 mOsm/kg
Osmolarity (200 mM Tromethamine/HCl, target pH 7.4, t48 h): 233 mOsm/kg
Apparent pH [5]: 8.8
Osmolarity [5]: 177 mOsm/kg
Osmolarity (200 mM Tromethamine/HCl, target pH 8.5, t24 h): 257 mOsm/kg
Osmolarity (200 mM Tromethamine/HCl, target pH 8.5, t48 h): 252 mOsm/kg
pH variability [1]: up to 0.3 pH units
Apparent pH ([2]; 100 mM Tromethamine pH 5.0, 25% NMP, t2 h): 5.0
Apparent pH ([2]; 100 mM Tromethamine pH 5.0, 25% NMP, t24 h): 4.6
Apparent pH ([2]; 100 mM Tromethamine pH 5.0, 25% NMP, t48 h): 5.1
Apparent pH ([2]; 100 mM Tromethamine pH = 4.0, 25% NMP, t2 h): 3.9
Apparent pH ([2]; 100 mM Tromethamine pH = 4.0, 25% NMP, t24 h): 3.6
Apparent pH ([2]; 100 mM Tromethamine pH = 4.0, 25% NMP, t48 h): 4.7
pH variability ([2]; Study 6, pH 4.0 test samples): 0.7 units
Osmolarity ([3]; ~50 mM Potassium Phosphate, target pH 6.0, t2 h): 108 mOsm/Kg
Osmolarity ([3]; ~50 mM Potassium Phosphate, target pH 6.0, t24 h): 105 mOsm/Kg
Osmolarity ([3]; ~50 mM Potassium Phosphate, target pH 6.0, t48 h): 115 mOsm/Kg
Osmolarity ([3]; ~50 mM Potassium Phosphate, target pH 7.4, t2 h): 193 mOsm/Kg
Osmolarity ([3]; ~50 mM Potassium Phosphate, target pH 7.4, t24 h): 190 mOsm/Kg
Osmolarity ([3]; ~50 mM Potassium Phosphate, target pH 7.4, t48 h): 213 mOsm/Kg
Osmolarity ([3]; ~50 mM Potassium Phosphate, target pH 8.5, t2 h): 265 mOsm/Kg
Osmolarity ([3]; ~50 mM Potassium Phosphate, target pH 8.5, t24 h): 255 mOsm/Kg
Osmolarity ([3]; ~50 mM Potassium Phosphate, target pH 8.5, t48 h): 283 mOsm/Kg
Osmolarity ([3]; ~50 mM Sodium Phosphate, target pH 6.0, t2 h): 212 mOsm/Kg
Osmolarity ([3]; ~50 mM Sodium Phosphate, target pH 6.0, t24 h): 118 mOsm/Kg
Osmolarity ([3]; ~50 mM Sodium Phosphate, target pH 6.0, t48 h): 141 mOsm/Kg
Osmolarity ([3]; ~50 mM Sodium Phosphate, target pH 7.4, t2 h): 232 mOsm/Kg
Osmolarity ([3]; ~50 mM Sodium Phosphate, target pH 7.4, t24 h): 233 mOsm/Kg
Osmolarity ([3]; ~50 mM Sodium Phosphate, target pH 7.4, t48 h): 237 mOsm/Kg
Osmolarity ([3]; ~50 mM Sodium Phosphate, target pH 8.5, t2 h): 241 mOsm/Kg
Osmolarity ([3]; ~50 mM Sodium Phosphate, target pH 8.5, t24 h): 242 mOsm/Kg
Osmolarity ([3]; ~50 mM Sodium Phosphate, target pH 8.5, t48 h): 276 mOsm/Kg
Osmolarity ([3]; ~50 mM Tromethamine/HCl, target pH 6.0, t2 h): 124 mOsm/Kg
Osmolarity ([3]; ~50 mM Tromethamine/HCl, target pH 6.0, t24 h): 129 mOsm/Kg
Osmolarity ([3]; ~50 mM Tromethamine/HCl, target pH 6.0, t48 h): 133 mOsm/Kg
Osmolarity ([3]; ~50 mM Tromethamine/HCl, target pH 7.4, t2 h): 165 mOsm/Kg
Osmolarity ([3]; ~50 mM Tromethamine/HCl, target pH 7.4, t24 h): 181 mOsm/Kg
Osmolarity ([3]; ~50 mM Tromethamine/HCl, target pH 7.4, t48 h): 186 mOsm/Kg
Osmolarity ([3]; ~50 mM Tromethamine/HCl, target pH 8.5, t2 h): 242 mOsm/Kg
Osmolarity ([3]; ~50 mM Tromethamine/HCl, target pH 8.5, t24 h): 239 mOsm/Kg
Osmolarity ([3]; ~50 mM Tromethamine/HCl, target pH 8.5, t48 h): 258 mOsm/Kg

Reference: patent US12048709B2 (scPharmaceuticals Inc., priority 2019, dated 2024)
